Results as given in publication PMC1838525 (Protein science : a publication of the Protein Society, 2006).

Target: T1, Vam7p PX domain (Saccharomyces cerevisiae, UniProt P32912)
T1 sequence (P32912 2-122): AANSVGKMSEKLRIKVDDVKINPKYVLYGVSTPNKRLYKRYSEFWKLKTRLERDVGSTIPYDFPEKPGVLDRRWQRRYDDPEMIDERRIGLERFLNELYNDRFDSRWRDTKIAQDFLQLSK
Test: 1H, […] HSQC NMR titration
Format: binding

Kd: 299 ± 26 µM
SMILES: CCCC(=O)OC[C@H](COP(=O)(O)O[C@@H]1[C@H](O)[C@H](OP(=O)(O)O)[C@@H](O)[C@H](O)[C@H]1O)OC(=O)CCC [C4-PtdIns(3)P]
